From patent US8916565B2, “Pyrrolopyrazine-spirocyclic piperidine amides as modulators of ion channels” (priority 2011, dated 2014)

Biological target: human NaV subtype, like NaV 1.7 (Homo sapiens, UniProt Q15858)
Test: E-VIPR optical membrane potential assay with electrical stimulation
Assay type: cell-based
Conditions: active against one or more sodium channels; Table 3 does not name the assay or NaV subtype; read-out: Binned Activity Data (IC50)

Chain of human NaV subtype, like NaV 1.7 (Q15858 whole entry): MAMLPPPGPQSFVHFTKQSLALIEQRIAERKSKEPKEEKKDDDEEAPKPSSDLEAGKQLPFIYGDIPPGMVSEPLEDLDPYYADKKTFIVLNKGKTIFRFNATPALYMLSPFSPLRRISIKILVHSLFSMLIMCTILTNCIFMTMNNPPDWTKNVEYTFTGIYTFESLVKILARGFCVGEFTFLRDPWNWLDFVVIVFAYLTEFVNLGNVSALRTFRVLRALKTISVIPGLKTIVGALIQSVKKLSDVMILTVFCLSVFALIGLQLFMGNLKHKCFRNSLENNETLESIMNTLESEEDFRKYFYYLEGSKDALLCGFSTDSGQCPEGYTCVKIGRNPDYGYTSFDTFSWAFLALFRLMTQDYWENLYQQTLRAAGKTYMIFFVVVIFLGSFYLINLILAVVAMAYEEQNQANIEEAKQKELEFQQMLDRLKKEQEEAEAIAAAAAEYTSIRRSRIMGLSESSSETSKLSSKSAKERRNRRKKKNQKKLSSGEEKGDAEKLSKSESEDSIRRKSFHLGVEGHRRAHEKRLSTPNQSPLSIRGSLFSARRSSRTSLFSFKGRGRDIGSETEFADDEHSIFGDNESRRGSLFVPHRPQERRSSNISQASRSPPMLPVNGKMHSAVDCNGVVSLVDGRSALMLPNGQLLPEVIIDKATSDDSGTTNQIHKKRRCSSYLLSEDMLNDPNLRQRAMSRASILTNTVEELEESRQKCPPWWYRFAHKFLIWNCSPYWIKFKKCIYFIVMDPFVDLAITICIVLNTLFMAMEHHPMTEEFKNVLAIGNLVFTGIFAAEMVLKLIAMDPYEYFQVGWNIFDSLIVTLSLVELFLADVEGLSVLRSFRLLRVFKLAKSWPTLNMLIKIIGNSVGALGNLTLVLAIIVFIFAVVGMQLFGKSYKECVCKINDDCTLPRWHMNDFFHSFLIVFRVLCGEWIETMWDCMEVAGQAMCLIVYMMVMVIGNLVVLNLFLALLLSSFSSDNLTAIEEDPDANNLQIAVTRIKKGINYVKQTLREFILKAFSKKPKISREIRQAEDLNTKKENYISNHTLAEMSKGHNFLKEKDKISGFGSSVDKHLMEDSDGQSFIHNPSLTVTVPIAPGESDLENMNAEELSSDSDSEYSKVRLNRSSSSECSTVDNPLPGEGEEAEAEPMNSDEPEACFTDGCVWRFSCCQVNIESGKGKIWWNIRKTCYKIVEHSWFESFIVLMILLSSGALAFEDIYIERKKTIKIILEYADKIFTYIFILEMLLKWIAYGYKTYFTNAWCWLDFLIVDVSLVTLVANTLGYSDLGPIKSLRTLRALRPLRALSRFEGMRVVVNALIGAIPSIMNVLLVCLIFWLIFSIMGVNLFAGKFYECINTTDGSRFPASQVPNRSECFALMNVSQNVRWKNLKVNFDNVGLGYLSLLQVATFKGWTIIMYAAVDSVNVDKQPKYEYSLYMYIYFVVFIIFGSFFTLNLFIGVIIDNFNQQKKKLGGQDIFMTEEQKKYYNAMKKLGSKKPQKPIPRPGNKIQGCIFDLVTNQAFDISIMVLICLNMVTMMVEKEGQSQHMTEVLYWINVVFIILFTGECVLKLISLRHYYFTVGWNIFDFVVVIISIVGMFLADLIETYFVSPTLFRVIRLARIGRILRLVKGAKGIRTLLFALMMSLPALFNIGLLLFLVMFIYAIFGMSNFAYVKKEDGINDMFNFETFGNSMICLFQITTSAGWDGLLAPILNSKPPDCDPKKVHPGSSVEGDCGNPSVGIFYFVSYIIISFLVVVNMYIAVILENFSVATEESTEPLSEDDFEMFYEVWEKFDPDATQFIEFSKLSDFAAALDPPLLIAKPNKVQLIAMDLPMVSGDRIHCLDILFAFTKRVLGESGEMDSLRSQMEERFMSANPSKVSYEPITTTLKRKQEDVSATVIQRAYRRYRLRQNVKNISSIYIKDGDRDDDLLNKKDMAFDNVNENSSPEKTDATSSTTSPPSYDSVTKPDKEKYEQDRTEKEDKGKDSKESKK

SMILES	IC50
CN1CCn2c(C(F)(F)F)ccc2C12CCN(C(=O)c1ccc(Cl)cc1)CC2 [Compound 403]	> 5 µM
CC(C)Oc1ccc(C(=O)N2CCC3(CC2)NC(C)(C)Cn2c(C(=O)C(F)(F)F)ccc23)c(F)c1 [Compound 404]	≤ 2 µM
COc1cc(C(=O)N2CCC3(CC2)NCC(C)(C)n2c(C(F)(F)F)ccc23)ccc1OC(C)C [Compound 405]	≤ 2 µM
CN1CCn2c(Cl)ccc2C12CCN(C(=O)c1ccc(Oc3ccccc3)cc1)CC2 [Compound 406]	2 to 5 µM
COc1cc(C(=O)N2CCC3(CC2)c2ccc(C(F)(F)F)n2CCN3C)ccc1O [Compound 407]	2 to 5 µM
CCC(C)(C)c1ccc(C(=O)N2CCC3(CC2)NC(C)(C)Cn2c(C(=O)C(F)(F)F)ccc23)cc1 [Compound 408]	≤ 2 µM
CC(C)CCOc1ccc(C(=O)N2CCC3(CC2)NC(C)(C)Cn2c(C(=O)C(F)(F)F)ccc23)cc1 [Compound 409]	≤ 2 µM
COc1cc(C(=O)N2CCC3(CC2)c2c(F)cc(C(F)(F)F)n2CCN3C)ccc1C1(O)CCC1 [Compound 410]	≤ 2 µM
C[C@H]1Cn2c(C(=O)C(F)(F)F)ccc2C2(CCN(C(=O)c3ccc(C(C)(C)O)c(F)c3)CC2)N1C [Compound 411]	≤ 2 µM
CC[C@@H](C)Oc1ccc(C(=O)N2CCC3(CC2)c2ccc(C(F)(F)C(F)(F)F)n2CCN3C)cc1OC [Compound 412]	≤ 2 µM
COc1ccc(C(=O)N2CCC3(CC2)c2ccc(C(=O)C(C)C)n2CCN3C)cc1Cl [Compound 413]	≤ 2 µM
CN1CCn2c(Cl)ccc2C12CCN(C(=O)c1ccc(COc3ccccc3)cc1)CC2 [Compound 414]	2 to 5 µM
CNS(=O)(=O)c1ccc(C(=O)N2CCC3(CC2)c2c(F)cc(C(F)(F)F)n2CCN3C)cc1 [Compound 415]	≤ 2 µM
CCOc1ccc(C(=O)N2CCC3(CC2)c2ccc(C(C)=O)n2CCN3C)cc1OCC [Compound 416]	> 5 µM
CN1CCn2c(C(=O)C(F)(F)F)ccc2C12CCN(C(=O)c1cc(O)ccc1F)CC2 [Compound 417]	> 5 µM
CC(=O)c1ccc2n1CC(C)(C)NC21CCN(C(=O)c2ccc(OC(C)C)c(C)c2)CC1 [Compound 418]	≤ 2 µM
CNC(=O)N1CCn2c(C(F)(F)F)ccc2C12CCN(C(=O)c1ccc(OC(C)C)c(Cl)c1)CC2 [Compound 419]	≤ 2 µM
CCOc1ccc(C(=O)N2CCC3(CC2)c2c(Cl)cc(C(F)(F)F)n2CCN3C)cc1C [Compound 420]	≤ 2 µM
Cc1cc(C(=O)N2CCC3(CC2)c2cc(C(=O)C(F)(F)F)cn2C(C)(C)CN3C)ccc1C(C)(C)O [Compound 421]	> 5 µM
CN1CCn2c(C(F)(F)F)ccc2C12CCN(C(=O)c1cccnc1Oc1ccccc1)CC2 [Compound 422]	≤ 2 µM
COc1cc(C(=O)N2CCC3(CC2)c2ccc(C(=O)C(F)(F)F)n2CCN3C)ccc1C(C)(C)C [Compound 423]	≤ 2 µM
Cc1cc(C(=O)N2CCC3(CC2)c2ccc(Cl)n2CCN3C)ccc1-c1ccccc1 [Compound 424]	≤ 2 µM
CC(=O)c1ccc2n1CCN(C)C21CCN(C(=O)c2ccc(C3CC3)cc2)CC1 [Compound 425]	> 5 µM
CCOC(=O)CN1CCn2c(C(F)(F)F)ccc2C12CCN(C(=O)c1ccc(OC(C)C)c(C)c1)CC2 [Compound 426]	≤ 2 µM
CC1Cn2c(C(F)(F)F)ccc2C2(CCN(C(=O)c3ccc(OC(C)C)cc3F)CC2)N1 (stereo not shown) [Compound 427]	≤ 2 µM

SMILES	IC50
CCC(=O)N1CCn2c(C(F)(F)F)ccc2C12CCN(C(=O)c1ccc(OC(C)C)c(OC)c1)CC2 [Compound 428]	≤ 2 µM
COc1cc(C(=O)N2CC[C@@]3(c4ccc(C(F)(F)F)n4CCN3C)[C@@H](C)C2)ccc1OC(C)C [Compound 429]	2 to 5 µM
Cc1cc(C(=O)N2CCC3(CC2)c2cccn2CCN3C)ccc1OC(C)C [Compound 430]	> 5 µM
CC(C)Oc1ccc(C(=O)N2CCC3(CC2)c2c(F)cc(C(F)(F)F)n2CCN3C)cn1 [Compound 431]	2 to 5 µM
COc1ccc(C(=O)N2CCC3(CC2)c2ccc(C(=O)C(F)(F)F)n2C[C@@H](C)N3C)cc1C [Compound 432]	2 to 5 µM
Cc1nc(C(=O)N2CCC3(CC2)NC(C)(C)Cn2c(C(=O)C(F)(F)F)ccc23)ccc1OC(C)C [Compound 433]	≤ 2 µM
COCCOc1ccc(C(=O)N2CCC3(CC2)c2ccc(C(=O)C(F)(F)F)n2CCN3C)cc1 [Compound 434]	> 5 µM
COc1cc(C(=O)N2CCC3(CC2)NCCn2c(C(F)(F)F)ccc23)ccc1OC(C)(C)C [Compound 435]	2 to 5 µM
CC(C)Oc1ccc(C(=O)N2CCC3(CC2)c2c(F)cc(C(F)(F)F)n2CCN3C)cc1F [Compound 436]	≤ 2 µM
Cc1cc(C(=O)N2CCC3(CC2)c2ccc(C(=O)C(F)(F)F)n2C(C)(C)CN3C)ccc1OC(C)C [Compound 437]	≤ 2 µM
CC(C)CCOc1ccc(C(=O)N2CCC3(CC2)c2ccc(C(=O)C(F)(F)F)n2CCN3C)nc1 [Compound 438]	≤ 2 µM
CC(C)Oc1ccc(C(=O)N2CCC3(CC2)c2ccc(C(=O)C(F)(F)F)n2C[C@H](C)N3C)cc1F [Compound 439]	≤ 2 µM
COc1cc(C(=O)N2CCC3(CC2)c2ccc(C(F)(F)F)n2CCN3C)ccc1OCCO [Compound 440]	> 5 µM
CN1CCn2c(C(F)(F)F)ccc2C12CCN(C(=O)c1ccc(S(=O)(=O)C(C)(C)C)cc1)CC2 [Compound 441]	≤ 2 µM
CC1(C)Cn2c(C(=O)C(F)(F)F)ccc2C2(CCN(C(=O)c3ccc(S(=O)(=O)NC4CC4)cc3)CC2)N1 [Compound 442]	≤ 2 µM
COc1cc(C(=O)N2CCC3(CC2)c2ccc(C(F)(F)F)n2CCN3C)ccc1OC(C)C [Compound 443]	≤ 2 µM
CC(C)CCOc1ccc(C(=O)N2CCC3(CC2)c2ccc(C(=O)C(F)(F)F)n2C(C)CN3C)nc1 (stereo not shown) [Compound 444]	≤ 2 µM
CC(C)Oc1ccc(C(=O)N2CCC3(CC2)c2ccc(C(=O)C4(C)CC4)n2CCN3C)c(F)c1 [Compound 445]	≤ 2 µM
CCOc1ccc(C(=O)N2CCC3(CC2)c2ccc(C(=O)C(F)(F)F)n2CCN3C)cc1F [Compound 446]	2 to 5 µM
CC(=O)c1ccc2n1CCN(C)C21CCN(C(=O)c2ccc(COCC(F)(F)F)cc2)CC1 [Compound 447]	> 5 µM
COc1ccc(C(=O)N2CCC3(CC2)c2ccc(C(=O)C4(C)CC4)n2CCN3C)nc1C [Compound 448]	≤ 2 µM
C[C@H]1Cn2c(C(=O)C(F)(F)F)ccc2C2(CCN(C(=O)c3ccc(COCCC(F)(F)F)cc3)CC2)N1C [Compound 449]	≤ 2 µM
Cc1cc(C(=O)N2CCC3(CC2)c2ccc(C(F)(F)F)n2CCN3C)ccc1S(=O)(=O)NC(C)C [Compound 450]	≤ 2 µM
CC(C)(O)c1ccc(C(=O)N2CCC3(CC2)c2ccc(C(F)(F)F)n2CCN3C2CC2)cc1 [Compound 451]	> 5 µM
O=C(c1cccc2cccnc12)N1CCC2(CC1)NCCn1c(C(F)(F)F)ccc12 [Compound 452]	2 to 5 µM

SMILES	IC50
CN1CCn2c(C(=O)C(F)(F)F)ccc2C12CCN(C(=O)c1ccc(-c3ccccc3)cn1)CC2 [Compound 453]	2 to 5 µM
CC(=O)c1cc2n(c1)CC(C)(C)NC21CCN(C(=O)c2ccc(OC(C)C)c(C)c2)CC1 [Compound 454]	> 5 µM
COc1ccc(C(=O)N2CCC3(CC2)c2ccc(C(=O)C(F)(F)F)n2CCN3C)cc1OC(C)C [Compound 455]	≤ 2 µM
CC(=O)c1ccc2n1CCN(C)C21CCN(C(=O)c2ccc(C(C)(C)O)c(C)c2)CC1 [Compound 456]	2 to 5 µM
Cc1cc(C(=O)N2CCC3(CC2)c2cccn2CCN3C)ccc1C(C)(C)O [Compound 457]	> 5 µM
COC(=O)C1CN(C)C2(CCN(C(=O)c3ccc(OC(C)C)c(OC)c3)CC2)c2ccc(C(F)(F)F)n21 (stereo not shown) [Compound 458]	2 to 5 µM
COc1ccc(C(=O)N2CCC3(CC2)c2ccc(C(=O)C(F)(F)F)n2CCN3C)cc1C(F)(F)F [Compound 459]	≤ 2 µM
COC(=O)N1CCn2c(C(F)(F)F)ccc2C12CCN(C(=O)c1ccc(OC(C)C)c(C)c1)CC2 [Compound 460]	≤ 2 µM
CC(C)Oc1ccc(C(=O)N2CCC3(CC2)c2ccc(C(F)(F)C(F)(F)F)n2CCN3C)cc1CO [Compound 461]	≤ 2 µM
CC(=O)c1ccc2n1CCN(C)C21CCN(C(=O)c2ccc(OCC(C)(C)C)cc2)CC1 [Compound 462]	≤ 2 µM
C[C@H]1Cn2c(C(=O)C(F)(F)F)ccc2C2(CCN(C(=O)c3ccc(OCC(F)(F)F)cc3)CC2)N1C [Compound 463]	≤ 2 µM
CN1CCn2c(ccc2C(F)(F)C(F)(F)F)C12CCN(C(=O)c1ccc(S(=O)(=O)C(C)(C)C)cc1)CC2 [Compound 464]	≤ 2 µM
CCNc1ncccc1C(=O)N1CCC2(CC1)c1ccc(C(F)(F)F)n1CCN2C [Compound 465]	> 5 µM
Cc1cc(C(=O)N2CCC3(CC2)c2c(Cl)cc(C(F)(F)F)n2CCN3C)ccc1C(C)(C)O [Compound 466]	≤ 2 µM
COc1cc(C(=O)N2CCC3(CC2)NC(C)(C)Cn2c(C(=O)C(F)(F)F)ccc23)ccc1COCC(F)(F)F [Compound 467]	≤ 2 µM
Cc1nc(C(=O)N2CCC3(CC2)c2ccc(C(=O)C(F)(F)F)n2CCN3C)ccc1OC(C)C [Compound 468]	≤ 2 µM
CN1CCn2c(C(F)(F)F)cc(Cl)c2C12CCN(C(=O)c1ccc(C(C)(C)O)cc1)CC2 [Compound 469]	2 to 5 µM
COc1cc(C(=O)N2CCC3(CC2)c2ccc(C(C)=O)n2CCN3C)ccc1COCC(F)(F)F [Compound 470]	≤ 2 µM
Cc1cc(C(=O)N2CCC3(CC2)c2ccc(C(=O)C(F)(F)F)n2CCN3C)ccc1C(F)(F)F [Compound 471]	≤ 2 µM
CC(=O)c1ccc2n1CCN(C)C21CCN(C(=O)c2cccc3cccnc23)CC1 [Compound 472]	> 5 µM
CC(=O)c1ccc2n1CCN(C)C21CCN(C(=O)c2ccc(C(C)(C)C)cc2)CC1 [Compound 473]	> 5 µM
CNC(=O)N1CCn2c(C(F)(F)F)ccc2C12CCN(C(=O)c1ccc(OC(C)C)cc1F)CC2 [Compound 474]	2 to 5 µM
Cc1cc(C(=O)N2CC[C@]3(c4ccc(C(F)(F)F)n4CCN3C)[C@H](F)C2)ccc1OC(C)C [Compound 475]	≤ 2 µM
